The values that follow are results of earlier work, collected in patent US12329853B2, “Compositions and methods for treating ocular diseases” (OCULAR THERAPEUTIX, INC., priority 2020, dated 2025).

Structures are written as SMILES.

For series [1] the following is noted: organic solvents typically employed for fabrication of microspheres using solvent evaporation.
The target in another series is FP prostanoid receptor (Homo sapiens, UniProt P43088).
Chain of FP prostanoid receptor (P43088 whole entry): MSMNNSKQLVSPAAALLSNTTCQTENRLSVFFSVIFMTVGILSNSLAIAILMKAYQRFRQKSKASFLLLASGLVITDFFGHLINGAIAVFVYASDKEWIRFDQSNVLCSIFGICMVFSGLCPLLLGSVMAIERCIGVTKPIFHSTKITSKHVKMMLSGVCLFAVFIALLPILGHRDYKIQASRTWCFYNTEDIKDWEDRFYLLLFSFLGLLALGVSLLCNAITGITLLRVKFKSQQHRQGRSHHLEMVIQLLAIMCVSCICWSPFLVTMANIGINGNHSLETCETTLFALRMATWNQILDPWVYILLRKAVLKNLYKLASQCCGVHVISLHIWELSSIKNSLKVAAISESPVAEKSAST

In the case of `CC(C)OC(=O)CCC/C=C\C[C@@H]1[C@@H](CC[C@@H](O)CCc2ccccc2)[C@H](O)C[C@@H]1O` [Latanoprost], the “Solubility in organic solvents” value in series [1] is on record as “readily soluble”. Turning to `O=C(O)CCC/C=C\C[C@@H]1[C@@H](/C=C/[C@@H](O)COc2cccc(C(F)(F)F)c2)[C@H](O)C[C@@H]1O` [free acid of travoprost], the “Selectivity for the FP prostanoid receptor compared to latanoprost” value at FP prostanoid receptor was “greater selectivity”. Further, the “Potency compared to latanoprost” value on FP prostanoid receptor (FP prostanoid receptor) is listed as “higher potency”.
